Test results reported in paper PMC12677699, “Utilizing Proteolytic‐Resistant Nano‐Short Peptide Based on Naphthyl Tail‐Anchored to Combat Bacterial Infections” (Advanced Science, 2025).
Converted amounts (≈) assume the structure as drawn. Non-standard residues stand in square brackets, D forms with d. Residues, ends and D or L forms follow the SMILES beside them. ξ: configuration not given here. ξAhp(2) = CCCCCC(N)C(=O)O

Experiments:
S. typhimurium 14028 = format: cell-based, Salmonella typhimurium
Description: (§1) The MIC values of the nano‐short peptides were determined according to standard protocols.^[ [63] ^] Bacterial strains were revived from cryopreservation and cultured in Mueller–Hinton broth (MHB) to logarithmic growth phase, then diluted to a final density of 0.5–1 × 10⁶ CFU mL^−1. Serial dilutions of the nano‐short peptides were prepared in 0.2% bovine serum albumin (BSA) using a 96‐well plate format. Equal volumes of peptide solutions and bacterial suspensions were combined and incubated at 37 °C for 20–22 h. Bacterial growth was assessed by measuring absorbance at 492 nm, with MHB alone (negative control) and untreated bacterial suspension (positive control) included for reference.

S. typhimurium 7731 = format: cell-based, Salmonella typhimurium
Description: as §1

S. aureus ATCC 29213 [1] = assay: ROS generation, DCFH-DA; format: cell-based, Staphylococcus aureus; settings: 16 × 10^−6 M, S. aureus ATCC 29213, DCFH-DA, 1 h; n = 3
Description: (§2) ROS accumulation levels were assessed by the fluorescent probe DCFH‐DA.^[ [63] ^] Logarithmic growth stage E. coli ATCC 25922 and S. aureus ATCC 29213 bacterial solutions were diluted to OD600 = 0.4 in PBS (pH = 7.4, 10 × 10^−3 M), followed by incubation with DCFH‐DA final concentration of 10 × 10^−6 M) for 30 min at 37 °C. Subsequently, the bacterial suspensions were then mixed with different concentrations of nano‐short peptides dilutions in equal volumes in a 96‐well plate and continued to incubate for 1 h (37 °C). Finally, the fluorescence intensity was measured using a microplate reader (excitation λ = 488 nm, emission λ = 525 nm).

P. aeruginosa PAO1 = format: cell-based, Pseudomonas aeruginosa
Description: as §1

P. aeruginosa 27853 = format: cell-based, Pseudomonas aeruginosa
Description: as §1

S. pullorum C7913 = format: cell-based
Description: as §1

[2] = LTA binding, BODIPY-TR-cadaverine displacement; settings: BC displacement, n = 3
Description: The binding ability of nano‐short peptides to LPS and LTA was evaluated using a BODIPY‐TR‐cadaverine (BC) displacement assay.^[ [59] ^] Test solutions containing LPS or LTA (50 µg mL^−1) were pre‐incubated with BC dye (5 µg mL^−1) for 4 h in the dark. Peptide solutions at varying concentrations were then mixed with the LPS or LTA, polymyxin B (final concentration 10 µg mL^−1) was used as a positive control, and LPS or LTA mixed with dye solution was used as a negative control. The fluorescence intensity (excitation λ = 580 nm, emission λ = 620 nm) was measured. %ΔF (au) = [(F treated – F negative control)/(F positive control – F negative control)] × 100%.

S. aureus ATCC 29213 [3] = assay: Respiratory chain dehydrogenase activity, RT reduction; format: cell-based, Staphylococcus aureus; settings: 16 × 10^−6 M, S. aureus ATCC 29213, 1.5 h, 37 °C; n = 3
Description: The inhibitory effects of nano‐short peptides on RCD activity in bacteria were evaluated using an RT reduction assay.^[ [58] ^] Logarithmic growth stage E. coli ATCC 25922 and S. aureus ATCC 29213 bacterial solutions were diluted to OD600 = 0.4 in MHB liquid medium. A mixed solution was prepared by combining RT (1 mg mL^−1), glucose (100 × 10^−3 M), and Tris‐HCl buffer (50 × 10^−3 M, pH 8.6) in equal volumes (1:1:1). In 96‐well microplates, serial dilutions of nano‐short peptides were prepared using the mixed solution, followed by addition of an equal volume of bacterial suspension. Following incubation at 37 °C for 1.5 h, the absorbance at 492 nm was measured using a microplate reader, with untreated bacterial suspensions serving as controls.

E. coli ATCC 25922 [4] = assay: ROS generation, DCFH-DA; format: cell-based, Escherichia coli; settings: 16 × 10^−6 M, E. coli ATCC 25922, DCFH-DA, 1 h; n = 3
Description: as §2

E. faecalis 29212 = format: cell-based, Enterococcus faecalis
Description: as §1

[5] = Dynamic light scattering and zeta potential; format: physicochemical; settings: 16 × 10^−6 M in deionized water; n = 3
Description: N4 was diluted to 16 × 10^−6 M using deionized water and added to disposable plastic cuvettes, and the kinetic diameters was determined using a Zetasizer Nano Z90 (Malvern Instruments, Worcestershire, U.K.).^[ [29] ^] N4 was diluted to 16 × 10^−6 M using deionized water and added to the electrode cups, and the zeta potential was determined using a Zetasizer Nano Z90 (Malvern Instruments, Worcestershire, UK).^[ [29] ^]

[6] = system: clinically isolated strains; assay: MIC against clinically isolated strains (panel); format: cell-based; settings: all four clinical strains of Figure 4G
Description: as §1

S. aureus ATCC 29213 [7] = assay: Flow cytometry, PI; format: cell-based, Staphylococcus aureus; settings: 16 × 10^−6 M N4, 1 h, control 1.23%
Description: The bacterial samples were incubated with N4 for 1 h and then incubated with the PI dye (at a final concentration of 10 µg mL^−1) for a further 15 min. Finally, bacteria containing PI dye were detected by FACScan flow cytometer at 488 nm excitation wavelength, bacterial solutions (containing PI dye) without N4 treatment were used as controls.

E. coli ATCC 25922 [8] = assay: Time-kill kinetics; format: cell-based, Escherichia coli; settings: 1 × MIC, PBS pH 7.4; n = 3
Description: Samples were collected at pre‐determined time points post‐exposure, serially diluted, and plated on Mueller‐Hinton agar (MHA) for viable colony counting after 18–24 h incubation at 37 °C. Untreated bacterial suspensions served as controls.

E. coli ATCC 25922 [9] = assay: Live/dead staining, PI and SYTO 9; format: cell-based, Escherichia coli
Text: Finally, a fluorescence microscope (EVOS FL Auto, Massachusetts, USA) was used to observe the fluorescence images of the bacteria under different background colors and representative pictures were taken.

E. coli ATCC 25922 [10] = assay: Cytoplasmic membrane permeability, ONPG hydrolysis; format: cell-based, Escherichia coli; settings: within 1800 s
Text: The ONPG hydrolysis assay was employed to determine the effects of nano‐short peptides on permeability of E. coli ATCC 25922 cytoplasmic membranes. The detailed experimental procedures followed the previously published methodology.^[ [30] ^]

SMILES | MIC, S. typhimurium 14028 (S. typhimurium 14028) | MIC, S. typhimurium 7731 (S. typhimurium 7731) | increase of ROS content vs untreated bacteria (S. aureus ATCC 29213 [1]) | MIC, P. aeruginosa PAO1 (P. aeruginosa PAO1) | MIC, P. aeruginosa 27853 (P. aeruginosa 27853) | MIC, S. pullorum C7913 (S. pullorum C7913) | LTA binding capacity, % of the antibiotic control ([2]; 8 × 10^−6 M) | LTA binding capacity, % of the antibiotic control ([2]; 16 × 10^−6 M) | RCD activity reduced to (S. aureus ATCC 29213 [3]) | increase of ROS content vs untreated bacteria (E. coli ATCC 25922 [4]) | MIC, E. faecalis 29212 (E. faecalis 29212) | zeta potential [5] | MIC values against clinically isolated strains [6] | PI-positive proportion (S. aureus ATCC 29213 [7]) | time to eliminate all E. coli ATCC 25922 cells (E. coli ATCC 25922 [8]) | red (PI)/green (SYTO 9) fluorescence overlap rate (E. coli ATCC 25922 [9]; 16 × 10^−6 M N4, E. coli ATCC 25922, ImageJ) | red (PI)/green (SYTO 9) fluorescence overlap rate (E. coli ATCC 25922 [9]; 256 × 10^−6 M N4, E. coli ATCC 25922, ImageJ) | increase in absorbance at 420 nm (ONPG hydrolysis) (E. coli ATCC 25922 [10]; 8 μM) | increase in absorbance at 420 nm (ONPG hydrolysis) (E. coli ATCC 25922 [10]; 16 μM)
CCCCCC(N)C(=O)NC(CCCCC)C(=O)NC(CCCCC)C(=O)NC(CCCCC)C(=O)N[C@H](CCCNC(=N)N)C(=O)N[C@@H](CCCNC(=N)N)C(=O)N[C@@H](CCCNC(=N)N)C(=O)N1CCC[C@H]1C(=O)O (stereo partly drawn) [Peptide B4] (H-[ξAhp(2)][ξAhp(2)][ξAhp(2)][ξAhp(2)][dR]RRP-OH; N-terminus assumed) | 128 µM (≈ 140 µg/mL) | 32 µM (≈ 35 µg/mL) | 1.38 fold | 256 µM (≈ 280 µg/mL) | 16 µM (≈ 17.5 µg/mL) | 16 µM (≈ 17.5 µg/mL) | 85.77% | 96.79% | 34.12% | 1.51 fold | 32 µM (≈ 35 µg/mL) | – | – | – | – | – | – | – | –
N=C(N)NCCC[C@H](NC(=O)[C@@H](CCCNC(=N)N)NC(=O)[C@H](Cc1cccc2ccccc12)NC(=O)[C@H](Cc1cccc2ccccc12)NC(=O)[C@H](Cc1cccc2ccccc12)NC(=O)[C@@H](N)Cc1cccc2ccccc12)C(=O)N[C@@H](CCCNC(=N)N)C(=O)N1CCC[C@H]1C(=O)O (stereo in doubt) [Peptide N4] | 8 µM (≈ 11 µg/mL) | 8 µM (≈ 11 µg/mL) | 1.83 fold | 4 µM (≈ 5.49 µg/mL) | 8 µM (≈ 11 µg/mL) | 4 µM (≈ 5.49 µg/mL) | 65.60% | 73.08% | 18.84% | 2.26 fold | 4 µM (≈ 5.49 µg/mL) | 6.99 mV | ≤ 16 µM | 36.7% | ≤ 1500 s | 79.11% | 99.29% | approximately 2 fold | ~5 fold
